We go through 7 substances from patent publication US20110150917A1, “Small Cationic Antimicrobial Peptides” (THE UNIVERSITY OF BRITISH COLUMBIA, priority 2007, published 2011).

For test [1], the system named is human peripheral blood mononuclear cells (PBMC). The test is described as follows: Chemokine induction in human PBMC (capture ELISA). Type of test: cell-based. Particulars: for ability to stimulate human PBMC to induce the expression of the chemokines MCP-1, Gro-α and IL8: ELISA 24 hours after peptide addition, compared to LL-37, lowest peptide concentration 5 μg/ml. The method, then: (§1) Venous blood (20 ml) from healthy volunteers was collected in Vacutainer® collection tubes containing sodium heparin as an anticoagulant (Becton Dickinson, Mississauga, ON) in accordance with UBC ethical approval and guidelines. Blood was diluted 1:1 with complete RPMI 1640 medium and separated by centrifugation over a Ficoll-Paque® Plus (Amersham Biosciences, Piscataway, N.J., USA) density gradient. White blood cells were isolated from the buffy coat, washed twice in RPMI 1640 complete medium, and the number of peripheral blood mononuclear cells (PBMC) was determined by trypan blue exclusion. PBMC (5×10^5) were seeded into 12-well tissue culture dishes (Falcon; Becton Dickinson) at 0.75 to 1×10^6 cells/ml at 37° C. in 5% CO2. The above conditions were chosen to mimic conditions for circulating blood monocytes entering tissues at the site of infection via extravasation.
(§2) Following incubation of the cells under various treatment regimens, the tissue culture supernatants were centrifuged at 1000×g for 5 min, then at 10,000×g for 2 min to obtain cell-free samples. Supernatants were aliquoted and then stored at −20° C. prior to assay for various chemokines by capture ELISA (eBioscience and BioSource International Inc., CA, USA respectively).

The test system of the next test is human PBMC. The test is described as follows: Chemokine responses of human PBMC to CpG oligonucleotides with co-administered lantibiotic peptides. Type of test: cell-based. The settings on record: for synergy with known adjuvants like CpG: FIG. 3, FIG. 8. The method, then:
FIG. 3A-C. Reinforcement of chemokine responses in human PBMC to the bacterial signature molecules, Cpg oligonucleotides, by co-administration of lantibiotic peptides. On the X-axis of this and subsequent Figures, N=Nisin Z, P=Pep5, G=gallidermin.
as §1, §2

A further test has as its system bacterial infections. The settings on record: mouse, in vivo; cited from earlier work.
For test [2] the following is noted: mouse model; cited from earlier work.
The next test relates to monocytic cells. Particulars: cited from earlier work.
The test system of a further test is macrophages. The settings on record: previously shown in applicant's laboratory; cited from earlier work.
For a further test, the system named is S. aureus. The test can be described thus: Protection of mice vs. Staphylococcus aureus challenge (peritoneal). It is filed as in vivo. On the procedure:
FIG. 9. Protection of animals vs. Staphylococcus aureus challenge when administered 4 hours prior to initiating the infection. A represents the reduction in colony counts within the peritoneum of mice treated with lantibiotic peptide (or negative control 1005 or positive control 1002) and challenged with ˜10^8 S. aureus in hog gastric mucin. […] An additional peptide 1002 was included as a positive control.
Conventional peptides are known to protect against infection (Scott et al. Nature Biotech 2007). However such peptides are very expensive whereas lantibiotics are bacterial fermentation products and thus inexpensive. Thus we assessed the reduction in colony counts after 24 hours within the peritoneum of mice treated with the lantibiotic peptide nisin (or negative control 1005 or positive control 1002) and challenged these mice 4 hours later with ˜10^8 S. aureus in hog gastric mucin. […] Thus the in vitro activities of nisin in increasing MCP-1 production in PBMC is clearly related to in vivo protection in animal models.

Another test has as its system Citrobacter rodentium. The test can be described thus: Citrobacter rodentium challenge in mice (live imaging, intestinal histology). Type of test: in vivo. The method, then:
FIG. 10. Live-time Non-invasive imaging following Citrobacter rodentium challenge; effect of nisin treatment. Animals were pre-treated intraperitoneally with 200 μg nisin, 4 h prior to initiating the infection. Mice were then infected via gavage with 2.5×10^8 CFU of Citrobacter rodentium (lux—luminescence labeled). Live mice were followed with a CCD camera over time to assess bacterial clearance/resolution of infection.
FIG. 11. Histology of the intestines of Citrobacter treated animals after sacrifice at day 11; effect of nisin treatment. A. Sections of (from right to left): normal uninfected, saline treated infected, and nisin-treated intestines. Letter labels are a. Inflammatory infiltrate and edema; b. elongated crypts (hyperplasia); c. sloughing of damaged epithelial cells (mucosal integrity); d. depletion of mucous in goblet cells. B. Scoring of these micrographs.

The mark [3] stands for this setting: intestines, sacrifice at day 11, p<0.05, FIG. 11.

“Also recorded” adds a separate entry of the source. Where no end group is shown, it is not given here.

As for “Pep5: cationic lantibiotic purified from producer strain S. epidermidis 25 (TAGPAIRASVKQCQKTLKATRLFTVSCKGKNGCK; thioether (positions not given here); also: lantibiotic; UniProt P19578 27-60, looked up)”, the “ability to stimulate human PBMC to induce the expression of the chemokines MCP-1, Gro-α and IL8” value (shortened to “ability to stimulate human PBMC”) in test [1] (FIG. 2A-C) is listed as “ability to induce chemokines”. The “synergy with known adjuvants like CpG” value in the test with human PBMC is reported as “show synergy”.
“LL-37: natural human host defence peptide (LLGDFFRKSKEKIGKEFKRIVQRIKDFLRNLVPRTES; Antibacterial peptide LL-37; UniProt P49913 134-170, looked up)”: the “protection against bacterial infections” value in the test on bacterial infections is given as “able to protect against bacterial infections”. Moreover, the “endotoxin mediated TNFα induction and lethality” value in test [2] was “reduce endotoxin mediated TNFα induction and lethality”. The “anti-endotoxic activity in vitro (suppression of LPS-mediated induction of TNFα)” value in the test on monocytic cells was “excellent anti-endotoxic activity”.
In the case of “gallidermin: cationic lantibiotic purified from Staphylococcus gallinarum Tü 3928 (IASKFLCTPGCAKTGSFNSYCC; thioether (positions not given here); also: lantibiotic; UniProt P21838 31-52, looked up)”, in test [1] (FIG. 2A-C), the “ability to stimulate human PBMC” value was “quite effective; also recorded: ability to induce chemokines”. In the test with human PBMC, the “synergy with known adjuvants like CpG” value is listed as “show synergy”.
Take “indolicidin: 13-mer peptide (ILPWKWPWWPWRR; ends and bridges not checked; UniProt P33046 131-143, looked up)”: in the test on macrophages, the “anti-endotoxic activity (suppression of LPS-stimulated TNFα by macrophages)” value is given as “rather modest anti-endotoxic activity”.
As to “Nisin A: lantibiotic, a variant of Nisin Z (ITSISLCTPGCKTGALMGCNMKTATCHCSIHVSK; thioether (positions not given here); also: lantibiotic; UniProt P13068 24-57, looked up)”, the “ability to induce MCP-1” value in test [1] (24 hours, 100 μg of peptide, ELISA, FIG. 7) is “excellent activity”.
On to nisin, for which, in the test on human PBMC (adjuvant formulations, ratios 2:1, 1:1 and 1:2 nisin to CpG, FIG. 8), the “synergy in inducing MCP-1 over and above the individual components” value is “demonstrated synergy”. The “colony counts within the peritoneum” value in the test with S. aureus (after 24 hours, peptide 4 hours before ~10^8 S. aureus in hog gastric mucin, FIG. 9A) is “reducing average colony counts”. Moreover, in the test on S. aureus (cf. control peptides 1002 and 1005, FIG. 9B), the “visual observation scores (physiological consequences)” value was “vastly improved”. Moreover, in the test with Citrobacter rodentium (200 μg nisin intraperitoneally 4 h before gavage with 2.5×10^8 CFU, CCD imaging, FIG. 10), the “infection in the gut / bacterial clearance” value is reported as “substantial decrease in infection in the gut; also recorded: superior clearance”. In addition, the “duration of the decrease in infection / superior clearance” value in the test on Citrobacter rodentium (after injection of nisin, FIG. 10) was “up to 11 days”. Moreover, in the test with Citrobacter rodentium (setting [3]), the “damage to epithelial integrity (histology score)” value was “decrease”; the “goblet cell depletion (histology score)” value is “decrease”; the “inflammatory exudate and edema (histology score)” value is “significant (p<0.05) increase”.
As for “Nisin Z: cationic lantibiotic bacteriocin purified from L. lactis NIZO 22186 fermentation broth (ITSISLCTPGCKTGALMGCNMKTATCNCSIHVSK; thioether (positions not given here); also: lantibiotic; UniProt P29559 24-57, looked up)”, in test [1] (FIG. 2A-C), the “ability to stimulate human PBMC” value is reported as “most effective; also recorded: ability to induce chemokines”. For the same substance, the “dose response of chemokine induction” value in test [1] (between 30 and 150 μg/ml, FIG. 2A-C) is on record as “good dose response”. In addition, the “synergy with known adjuvants like CpG” value in the test with human PBMC is recorded as “show synergy”. Besides, the “MCP-3 release above the additive effect of CpG alone and lantibiotic alone” value with human PBMC (p<0.05) is “statistically significantly (p<0.05) increased”. In the test with human PBMC (vs three classes of CpG), the “inducing MCP-1 and IL6, compared with CpG” value is recorded as “superior to any of the three classes of CpG”.
